One experiment deals with HL-1. Kind of experiment: protection of cardiomyocytes from stress damage, SAR follow-up, cell-based, panel, H9c2 and HL-1, H2O2, 2-deoxyglucose, ATP luminescence (AID 651642).
Another experiment has as its system H9c2. Described as above.
[1] abbreviates: H9c2/HL-1 cardiomyocyte 2-deoxyglucose damage, mean of runs, with 2-deoxyglucose, mean IC50 across panel.
Where [2] appears, read: H9c2/HL-1 cardiomyocyte 2-deoxyglucose damage, run 1, with 2-deoxyglucose.
The mark [3] stands for this setting: H9c2/HL-1 cardiomyocyte 2-deoxyglucose damage, run 2, with 2-deoxyglucose.
[4] abbreviates: H9c2/HL-1 cardiomyocyte 2-deoxyglucose damage, run 3, with 2-deoxyglucose.
The mark [5] stands for this setting: H9c2/HL-1 cardiomyocyte 2-deoxyglucose damage, run 4, with 2-deoxyglucose.
The mark [6] stands for this setting: H9c2/HL-1 cardiomyocyte H2O2 oxidative damage, mean of runs, with H2O2, mean IC50 across panel.
Setting [7] is: H9c2/HL-1 cardiomyocyte H2O2 oxidative damage, run 1, with H2O2.
Where [8] appears, read: H9c2/HL-1 cardiomyocyte H2O2 oxidative damage, run 2, with H2O2.
[9] abbreviates: H9c2/HL-1 cardiomyocyte H2O2 oxidative damage, run 3, with H2O2.
Where [10] appears, read: H9c2/HL-1 cardiomyocyte H2O2 oxidative damage, run 4, with H2O2.

Some results are limits rather than exact numbers.

In general, IC50 refers to the concentration needed to halve the response being measured. Read a high IC50 as weaker potency in that assay. As for `COc1cc(-c2cc(C(=O)NCC(=O)Nc3cccc(C(C)=O)c3)c3ccccc3n2)cc(OC)c1OC`, the IC50 with HL-1 (setting [1]) was 6.18 µM; with HL-1 (setting [2]), 2.77 µM; in the experiment on HL-1 (setting [3]) it was 3.2 µM; with HL-1 (setting [4]), 8.97 µM; in the experiment with HL-1 (setting [5]), 9.78 µM; in the experiment with HL-1 (setting [6]), 6.32 µM. Moreover, the IC50 in the experiment on HL-1 (setting [7]) worked out at 4.49 µM; with HL-1 (setting [8]) it was 9.07 µM; in the experiment with HL-1 (setting [9]), 4.55 µM; with HL-1 (setting [10]) it was 7.16 µM; in the experiment with H9c2 (setting [1]), 8.19 µM; in the experiment on H9c2 (setting [2]) it was 9.43 µM. In addition, the IC50 came out at 9.75 µM in the experiment with H9c2 (setting [3]); 6.11 µM with H9c2 (setting [4]); 7.46 µM in the experiment on H9c2 (setting [5]); 1.61 µM in the experiment on H9c2 (setting [6]); 1.67 µM in the experiment with H9c2 (setting [7]); 2.65 µM with H9c2 (setting [8]). The figures for the IC50 in the experiment with H9c2 (setting [9]) and in the experiment with H9c2 (setting [10]) were 0.99 µM and 1.13 µM, respectively.
As to `COc1cc(-c2cc(C(=O)NCC(=O)O)c3ccccc3n2)cc(OC)c1OC`, the IC50 with HL-1 (setting [1]), with HL-1 (setting [2]), in the experiment with HL-1 (setting [3]), in the experiment on HL-1 (setting [4]), with HL-1 (setting [5]) and in the experiment with HL-1 (setting [6]) was above 79 µM each time. In addition, the IC50 in the experiment with HL-1 (setting [7]), with HL-1 (setting [8]), with HL-1 (setting [9]), in the experiment with HL-1 (setting [10]), in the experiment on H9c2 (setting [1]) and with H9c2 (setting [2]) was above 79 µM throughout. Besides, the IC50 with H9c2 (setting [3]), with H9c2 (setting [4]), in the experiment on H9c2 (setting [5]), in the experiment on H9c2 (setting [7]), with H9c2 (setting [8]) and in the experiment on H9c2 (setting [9]) was above 79 µM each time. This compound also registered an IC50 with H9c2 (setting [10]) above 79 µM.
On to `COc1cc(-c2cc(C(=O)Nc3cccc(C(=O)O)c3)c3ccccc3n2)cc(OC)c1OC`, for which the IC50 in the experiment on HL-1 (setting [1]), in the experiment with HL-1 (setting [2]), in the experiment with HL-1 (setting [3]), in the experiment on HL-1 (setting [4]), in the experiment with HL-1 (setting [5]) and with HL-1 (setting [6]) was above 79 µM each time. Besides, the IC50 in the experiment with HL-1 (setting [7]), in the experiment on HL-1 (setting [8]), in the experiment with HL-1 (setting [9]), in the experiment on HL-1 (setting [10]), with H9c2 (setting [1]) and in the experiment on H9c2 (setting [2]) was above 79 µM throughout. The IC50 in the experiment on H9c2 (setting [3]), in the experiment on H9c2 (setting [4]), in the experiment on H9c2 (setting [5]), in the experiment on H9c2 (setting [6]), with H9c2 (setting [7]) and in the experiment with H9c2 (setting [8]) was above 79 µM throughout. Moreover, the IC50 in the experiment on H9c2 (setting [9]) and in the experiment on H9c2 (setting [10]) was above 79 µM throughout.
For the compound `COc1ccc2c(c1OC)C(=O)N1c3ccccc3C(=O)N(Cc3cccc(C)c3)C21` (stereo not given), the IC50 with HL-1 (setting [1]) was 10.6 µM; in the experiment on HL-1 (setting [2]) it was 7.52 µM; in the experiment with HL-1 (setting [3]), 8.41 µM; with HL-1 (setting [4]) it was 12 µM; in the experiment with HL-1 (setting [5]) it was 14.6 µM; in the experiment on HL-1 (setting [6]), above 79 µM. In addition, the IC50 with HL-1 (setting [7]), in the experiment with HL-1 (setting [8]), in the experiment on HL-1 (setting [9]), with HL-1 (setting [10]), in the experiment on H9c2 (setting [1]) and with H9c2 (setting [2]) was above 79 µM throughout. For the same compound, the IC50 in the experiment on H9c2 (setting [3]) was above 79 µM; in the experiment on H9c2 (setting [4]), above 79 µM; in the experiment with H9c2 (setting [5]), above 79 µM; in the experiment with H9c2 (setting [7]) it was 5.63 µM; with H9c2 (setting [8]), 6 µM; with H9c2 (setting [9]), above 79 µM. This compound also displayed a concentration for half-maximal inhibition (IC50) in the experiment on H9c2 (setting [10]) above 79 µM.
With `COc1cc(-c2cc(C(=O)NCC(=O)Nc3cccc(C(C)=O)c3)c3cc(F)ccc3n2)cc(OC)c1OC`, the 50% inhibitory concentration (IC50) in the experiment with HL-1 (setting [1]) is 6.37 µM; with HL-1 (setting [2]), 3.22 µM; with HL-1 (setting [3]), 3.87 µM; in the experiment with HL-1 (setting [4]), 8.99 µM; with HL-1 (setting [5]), 9.39 µM; in the experiment on HL-1 (setting [6]), 6.46 µM. Further, the IC50 in the experiment on HL-1 (setting [7]) stood at 5.91 µM; with HL-1 (setting [8]), 5.98 µM; with HL-1 (setting [9]) it was 5.45 µM; in the experiment on HL-1 (setting [10]) it was 8.51 µM; in the experiment on H9c2 (setting [1]), 6.15 µM; in the experiment on H9c2 (setting [2]) it was 7.04 µM. Further, the IC50 stood at 8.51 µM with H9c2 (setting [3]); 4.17 µM with H9c2 (setting [4]); 4.87 µM in the experiment on H9c2 (setting [5]); 1.29 µM in the experiment on H9c2 (setting [6]); 1.53 µM in the experiment on H9c2 (setting [7]); 1.98 µM with H9c2 (setting [8]). Besides, the IC50 with H9c2 (setting [9]) is 0.789 µM; in the experiment on H9c2 (setting [10]), 0.865 µM.
As for `COc1ccc2c(c1OC)C(=O)N1c3ccccc3C(=O)N(Cc3ccc(C)cc3)C21` (stereo not given), the half-inhibitory concentration (IC50) in the experiment on HL-1 (setting [2]) was 11.4 µM; in the experiment on HL-1 (setting [3]), 23.3 µM; in the experiment on HL-1 (setting [4]), above 79 µM; in the experiment on HL-1 (setting [5]), above 79 µM; with HL-1 (setting [7]), above 79 µM; with HL-1 (setting [8]) it was above 79 µM. The IC50 in the experiment on HL-1 (setting [9]), in the experiment with HL-1 (setting [10]), in the experiment with H9c2 (setting [1]), in the experiment with H9c2 (setting [2]), in the experiment on H9c2 (setting [3]) and in the experiment with H9c2 (setting [4]) was above 79 µM in each case. Also, the IC50 in the experiment with H9c2 (setting [5]) is above 79 µM; in the experiment on H9c2 (setting [7]) it was above 79 µM; with H9c2 (setting [8]), 6.9 µM; with H9c2 (setting [9]), above 79 µM; in the experiment with H9c2 (setting [10]), above 79 µM.

The values above are taken from PubChem BioAssay AID651642 (Sanford-Burnham Center for Chemical Genomics, 2012).
